Reference: patent publication US20120122727A1, “IN VITRO METHOD FOR PREDICTING WHETHER A COMPOUND IS GENOTOXIC IN VIVO” (priority 2009, published 2012)

System: primary mouse hepatocytes
Assay: Gene expression (Affymetrix Mouse Genome 430 2.0) in primary mouse hepatocytes, true vs false GTX, 24 h and 48 h
Settings: 48 h; log2, corrected for vehicle control

Structure (SMILES): c1ccc2c(c1)cc1ccc3cccc4ccc2c1c34 [BaP, Benzo(a)pyrene]
- Gene expression AK005731 average: 3.0498
- Gene expression AK007854 average: 1.6125
- Gene expression AK010447 average: −1.207
- Gene expression AK010738 average: 0.9112
- Gene expression AK014608 average: 1.245
- Gene expression AK017734 average: 0.7529
- Gene expression AK018383 average: 1.273
- Gene expression AK019979 average: −1.0966
- Gene expression AV095209 average: −0.7654
- Gene expression AV141095 average: −1.4056
- Gene expression AV173869 average: −1.924
- Gene expression AV216768 average: −1.447
- Gene expression AV219418 average: 1.558
- Gene expression AV221299 average: −1.169
- Gene expression AV246296 average: 1.1524
- Gene expression AV251625 average: 1.731
- Gene expression AV254764 average: 1.48
- Gene expression AV327248 average: 2.067
- Gene expression BB009155 average: 0.784
- Gene expression BB027848 average: 0.4738
- Gene expression BB043558 average: 1.692
- Gene expression BB046347 average: 0.7766
- Gene expression BB140436 average: −0.4572
- Gene expression BB204486 average: −1.5693
- Gene expression BB223872 average: 1.1634
- Gene expression BB246912 average: −1.54
- Gene expression BB275142 average: 1.0559
- Gene expression BB458460 average: −1.384
- Gene expression BB463610 average: 1.672
- Gene expression BB730977 average: 0.4218
- Gene expression BB743970 average: 1.51
- Gene expression BB770528 average: 0.7877
- Gene expression BB781615 average: 0.9271
- Gene expression BC003284 average: 0.7313
- Gene expression BC004827 average: −1.186
- Gene expression BC005552 average: −0.2121
- Gene expression BC006713 average: 0.4721
- Gene expression BC010318 average: −0.5529
- Gene expression BC012247 average: 1.477
- Gene expression BC012955 average: −0.9445
- Gene expression BC013893 average: 1.04
- Gene expression BC017615 average: −2.234
- Gene expression BC019379 average: −1.9807
- Gene expression BC019882 average: 2.16
- Gene expression BC021352 average: 0.7052
- Gene expression BC022148 average: 1.324
- Gene expression BC025169 average: −0.5114
- Gene expression BC026131 average: −1.045
- Gene expression BC027026 average: 1.379
- Gene expression BC027121 average: 1.345
- Gene expression BC027185 average: 0.7081
- Gene expression BE956581 average: 1.451
- Gene expression BF719766 average: 0.9507
- Gene expression BG065754 average: 0.9746
- Gene expression BG066491 average: −2.098
- Gene expression BG076151 average: 0.7599
- Gene expression BG076333 average: −0.4091
- Gene expression BG797099 average: 1.8809
- Gene expression BG967046 average: 0.5936
- Gene expression BI651416 average: 1.9573
- Gene expression BI966443 average: 1.3186
- Gene expression BM198879 average: 0.8089
- Gene expression BM200015 average: 1.0174
- Gene expression BM230508 average: 1.158
- Gene expression BM936480 average: 3.0213
- Gene expression BQ174991 average: −1.408
- Gene expression L21027 average: −1.779
- Gene expression NM_007556 average: −1.089
- Gene expression NM_007980 average: 1.753
- Gene expression NM_007987 average: 1.353
- Gene expression NM_008522 average: 2.9351
- Gene expression NM_008935 average: −1.4799
- Gene expression NM_009897 average: 1.182
- Gene expression NM_011075 average: 1.198
- Gene expression NM_011176 average: 1.4287
- Gene expression NM_011316 average: 0.8735
- Gene expression NM_012006 average: 2.867
- Gene expression NM_013642 average: −1.442
- Gene expression NM_013738 average: 0.9012
- Gene expression NM_013929 average: 1.062
- Gene expression NM_018881 average: 3.369
- Gene expression NM_019738 average: −2.586
- Gene expression NM_030697 average: 1.3687
- Gene expression NM_053122 average: −1.795
- Gene expression NM_134147 average: −1.2396
- Gene expression NM_134188 average: 0.2884
- Gene expression X62701 average: −1.2338
